One series has as its system PC12 cells. Nature of the series: Protection of PC12 cells against camptothecin-induced cell death (BCECF AM fluorescence). The series is classed as cell-based. How it is done:
The 2-amino-4,5,6,7-tetrahydrobenzothiazole hydrogen iodide, 1-(4-methylphenyl)-2-(4,5,6,7-tetrahydro-2-imino-3(2H)-benzothiazolyl)-ethanone hydrobromide, and analogues were tested for their ability to protect PC12 cells against the toxic agent, camptothecin. PC12 cells were cultured in RPMI1640 media containing 10% horse serum and 5% fetal calf serum (37° C., pH 7.4) until confluent. Thereafter, 2.2×10^4 cells per mL were added to each trough of a 96 well plate (approximately 6,270 cells per well 285 μL) and were left to grow for 12 h. The media then was removed and was replaced by media with and without the compounds to be tested, including precursor, PFTα, and numerous analogues (concentration 100-400 nM, prepared in DMSO to a final dilution of 0.4%, 8 wells per concentration). Following 6 h of incubation, camptothecin (40 μM) was added to 4 of each 8 wells, and the cells were incubated for a further 24 h. Cells then were gently washed twice with phosphate buffered saline (PBS: 0.1 M, 37° C., pH 7.4) and were incubated in PBS containing the live-cell indicator dye, 2′,7′-bis(2-carboxyethey)-5-6-carboxyfluorescein AM ester (BCECF AM: 5 μM) (Molecular Probes, CA), for 45 min in minimal light. This fluorescent dye was taken up and retained by live cells. Finally, the cells were washed twice in PBS and their fluorescence then was quantified (excitation: 490 nm, emission: 535 nm, Perkin Elmer HTS 7000).
PC12 cell survival was also assessed. One hundred percent cell survival was determined from cells incubated in the absence of both any compound and camptothecin. […] Compound-induced toxicity was assessed by comparing cells treated with compound at various concentrations in the absence of camptothecin with cells incubated in the absence of both compound and camptothecin. […] Compound-induced cellular protection was assessed by comparing cells incubated with camptothecin with cells incubated with camptothecin in the presence of compound, in a concentration-dependent manner.

For another series, the system named is rat hippocampal neurons. Nature of the series: Neuronal survival assay in cultured hippocampal neurons treated with camptothecin or etoposide. The series is classed as cell-based. Conditions: for neuroprotection of hippocampal neurons against camptothecin (in words): 100 nM, added 1 h before camptothecin 5 μM; for protection of primary hippocampal cells against death induced by camptothecin and etoposide (in words) / neurons killed: camptothecin 5 μM, etoposide 2.5 μM; for neurons killed: hippocampal neurons. The protocol:
2-amino-4,5,6,7-tetrahydrobenzothiazole hydrogen and 1-(4-methylphenyl)-2-(4,5,6,7-tetrahydro-2-imino-3(2H)-benzothiazolyl)-ethanone hydrobromide and their analogues were assessed for their ability to protect rat hippocampal cells in culture from camptothecin ([…]).
Dissociated hippocampal cell cultures were established from embryonic day 18 Sprague-Dawley rats (Harlan, Inc.) as described previously. […] 77:220-28. Cells were grown in polyethyleneimine-coated plastic dishes or 22 m^2 glass coverslips, and incubated in Neurobasal medium containing B27 supplements, 2 mM L-glutamine, 25 mg/ml gentamycin, 1 mM Hepes (Gibco BRL) and 0.001% gentamicin sulfate. All experiments were performed using 9-10 day-old cultures. Camptothecin and etoposide (Signia) were prepared as 500× stocks in DMSO. Neuron survival was quantified by established methods. […] Briefly, viable neurons in premarked fields (10× objective) were counted before experimental treatment and at specified time points thereafter. Neurons with intact neurites of uniform diameter and soma with a smooth round appearance were considered viable. In contrast neurons with fragmented neurites and vacuolated soma were considered non-viable.

Where [1] appears, read: 6 h preincubation with compound, camptothecin 40 μM for 24 h; read-out: PD50; concentration of compounds required to induce 50% protection (PC50) of PC12 cells from camptothecin-induced cell-death.
Where [2] appears, read: compounds 100-400 nM, camptothecin 40 μM 24 h.

We go through 26 compounds from patent publication US20040067991A1, “Tetrahydrobenzothiazole analogues as neuroprotective agents” (priority 2003, published 2004).

Structures can show the parent of a compound that is named as a salt. Where two headings read alike, the source gives them in different places.

Take `N=c1sc2c(n1CC(=O)c1ccc(F)cc1)CCCC2` [Compound 4, 1-(4-fluorophenyl)-2-(4,5,6,7-tertahydro-2-imino-3 (2H)-benzothiazolyl)-ethanone hydrobromide]: the EC50 in the series on PC12 cells (setting [1]) is 379 nM.

As to “2-imino-3-(naphthalenylmethyl-4,5,6,7-tetrahydro-3(2H)-benzothiazole hydrobromide [Compound 24]”, in the series with PC12 cells (setting [1]), the EC50 stood at 318 nM.

For `Br.COc1ccccc1C(=O)Cn1c2c(sc1=N)CCCC2` [Compound 7, 1-(2-methoxylphenyl)-2-(4,5,6,7-tertahydro-2-imino-3(2H)-benzothiazolyl)-ethanone hydrobromide], the EC50 with PC12 cells (setting [1]) is 348 nM. Also, the “protection of PC12 cells against camptothecin-induced death (in words)” value (“protection of PC12 cells” for short) with PC12 cells (setting [2]) was “highly potent”. `CCC(=O)Cn1c2c(oc1=N)CCCC2` [Compound 28, 1-(4,5,6,7-tertahydro-2-imino-3(2H)-benzoxazolyl)-2-butanone hydrobromide]: the EC50 with PC12 cells (setting [1]) stood at 143 nM. Same read-out and setting: as for `N=c1sc2c(n1CC(=O)c1ccc([N+](=O)[O-])cc1)CCCC2` [Compound 11, 1-(4-nitrophenyl)-2-(4,5,6,7-tertahydro-2-imino-3(2H)-benzothiazolyl)ethanone hydrobromide], the figure is 410 nM. Take `I.Nc1nc2c(s1)CCCC2` [precursor, 2-amino-4,5,6,7-tetrahydrobenzothiazole hydrogen iodide]: in the series with PC12 cells (setting [2]), the “protection of PC12 cells” value is given as “low activity”. The EC50 with PC12 cells (read-out: PD50; concentration of compounds required to induce 50% protection (PC50) of PC12 cells from camptothecin-induced cell-death; 6 h preincubation with compound, camptothecin 40 μM for 24 h) amounted to 5750 nM. In the series on rat hippocampal neurons (concentrations up to 400 nM), the “toxicity when administered alone to hippocampal cells” value is “neither PFTα (5) nor its precursor were toxic”. With `N=c1sc2c(n1Cc1ccc(C(F)(F)F)cc1)CCCC2` [Compound 22, 2-imino-3-(4′-trifluorobenzyl)-4,5,6,7-tetrahydro-3(2H)-benzothiazole hydrobromide], the EC50 in the series with PC12 cells (setting [1]) was determined as 327 nM. Consider `Br.COc1ccc(C(=O)Cn2c3c(sc2=N)CCCC3)cc1` [Compound 6, 1-(4-methoxylphenyl)-2-(4,5,6,7-tertahydro-2-imino-3(2H)-benzothiazolyl)-ethanone hydrobromide], for which the EC50 with PC12 cells (setting [1]) amounted to 182 nM. Besides, the “protection of PC12 cells” value in the series on PC12 cells (setting [2]) was “highly potent”. Take “1-(4-phenylphenyl)-2-(4,5,6,7-tertahydro-2-imino-3(2H)-benzothiazolyl)-ethanone hydrobromide [Compound 10]”: in the series on PC12 cells (setting [1]), the EC50 was 767 nM.

Take “2-imino-3-(4′-fluorobenzyl)-4,5,6,7-tetrahydro-3(2H)-benzothiazole hydrobromide [Compound 16]”: the EC50 in the series on PC12 cells (setting [1]) was 154 nM. In the case of “ethyl 2-(4,5,6,7-tertahydro-2-imino-3(2H)-benzothiazolyl)-acetate hydrobromide [Compound 2]”, the EC50 in the series with PC12 cells (setting [1]) amounted to 595 nM.

For the compound `Cc1ccc(C(=O)Cn2c3c(oc2=N)CCCC3)cc1` [Compound 27, 1-(4-methylphenyl)-2-(4,5,6,7-tetrahydro-2-imino-3(2H)-benzoxazolyl)ethanone hydrobromide], the EC50 in the series on PC12 cells (setting [1]) was determined as 69 nM. `N=c1sc2c(n1CCc1ccccc1)CCCC2` [Compound 25, 2-imino-3-phenylethyl-4,5,6,7-tetrahydro-3(2H)-benzothiazole]: in the series on PC12 cells (setting [1]), the EC50 worked out at 1100 nM. On to `Br.COc1cccc(C(=O)Cn2c3c(sc2=N)CCCC3)c1` [Compound 8, 1-(3-methoxylphenyl)-2-(4,5,6,7-tertahydro-2-imino-3(2H)-benzothiazolyl)-ethanone hydrobromide], for which the EC50 in the series with PC12 cells (setting [1]) is 418 nM. In the series with rat hippocampal neurons, the “neuroprotection of hippocampal neurons against camptothecin (in words)” value was “significantly protected”. The “protection of primary hippocampal cells against death induced by camptothecin and etoposide (in words)” value (from here on “protection of primary hippocampal cells”) with rat hippocampal neurons (24 h) is on record as “highly potency”. For `Cc1ccc(Cn2c3c(sc2=N)CCCC3)cc1` [Compound 18, 2-imino-3-(4′-methylbenzyl)-4,5,6,7-tetrahydro-3(2H)-benzothiazole hydrobromide], the EC50 in the series on PC12 cells (setting [1]) worked out at 1000 nM. As for `CC(C)(C)c1ccc(Cn2c3c(sc2=N)CCCC3)cc1` [Compound 19, 2-imino-3-(4′-tert-butylbenzyl)-4,5,6,7-tetrahydro-3(2H)-benzothiazole hydrobromide], the EC50 with PC12 cells (setting [1]) is 315 nM. Regarding `CC[C@@]1(O)C(=O)OCc2c1cc1n(c2=O)Cc2cc3ccccc3nc2-1` [camptothecin, reference compound], in the series with rat hippocampal neurons, the neurons killed entry is listed as “approximately 85%”. `N=c1sc2c(n1Cc1ccc([N+](=O)[O-])cc1)CCCC2` [Compound 20, 2-imino-3-(4′-nitrobenzyl)-4,5,6,7-tetrahydro-3(2H)-benzothiazole hydrobromide]: the EC50 in the series on PC12 cells (setting [1]) is 144 nM. Take `N=c1sc2c(n1Cc1ccc(F)cc1F)CCCC2` [Compound 17, 2-imino-3-(2′,4′-difluorobenzyl)-4,5,6,7-tetrahydro-3(2H)-benzothiazole hydrobromide]: the EC50 in the series with PC12 cells (setting [1]) is 93 nM. The same measure, in the same setting: next, `N=c1sc2c(n1Cc1cccc(Cn3c4c(sc3=N)CCCC4)n1)CCCC2` [Compound 30, 2,6-Bis[(4,5,6,7-tetrahydro-2-imino-3(2H)-benzothiazolyl)methyl]pyridine Dihydrobromide]: 133 nM.

Consider `Br.N=c1sc2c(n1CC1CC1)CCCC2` [Compound 15, 3-(cyclopropylmethyl)-4,5,6,7-tetrahydro-2(3H)-benzothiazolimine Hydrobromide], for which, in the series with PC12 cells (setting [1]), the EC50 was 728 nM. The “neuroprotection of hippocampal neurons against camptothecin (in words)” value with rat hippocampal neurons was “could not protect neurons effectively”. Moreover, in the series on rat hippocampal neurons (added 1 h before etoposide 2.5 μM), the “neuroprotection of hippocampal neurons against etoposide (in words)” value is given as “activity comparable to PFTα”. For the same compound, the “protection of primary hippocampal cells” value in the series with rat hippocampal neurons (24 h) is “highly potency”. Further, the neuronal survival in the series on rat hippocampal neurons (pretreated with 100 nM of analogue, then camptothecin (5 μM), 24 h) was determined as 23%. As for “2-Imino-3-butyl-4,5,6,7-tetrahydro-3(2H)-benzothiazole hydrobromide [Compound 26]”, the EC50 in the series with PC12 cells (setting [1]) came out at 395 nM. On to `Br.N=c1sc2c(n1CC(=O)c1ccc(Cl)cc1)CCCC2` [Compound 9, 1-(4-chlorophenyl)-2-(4,5,6,7-tertahydro-2-imino-3(2H)-benzothiazolyl)ethanone hydrobromide], for which, in the series with PC12 cells (setting [1]), the EC50 stood at 187 nM. The “protection of PC12 cells” value in the series with PC12 cells (setting [2]) is given as “highly potent”. Besides, the “neuroprotection of hippocampal neurons against camptothecin (in words)” value in the series with rat hippocampal neurons was “significantly protected”. For the same compound, the “protection of primary hippocampal cells” value in the series with rat hippocampal neurons (24 h) is “highly potency”. As for “2-imino-3-(4′-cyanobenzyl)-4,5,6,7-tetrahydro-3(2H)-benzothiazole hydrobromide [Compound 21]”, in the series with PC12 cells (setting [1]), the EC50 was 418 nM.

With `Cc1ccc(-c2cn3c4c(sc3n2)CCCC4)cc1` [Compound 29, 2-(4′-methylphenyl)-5,6,7,8-tetrahydroimidazo[2,1-b]benzothiazole], the EC50 with PC12 cells (setting [1]) is 214 nM. As to `COc1cc([C@@H]2c3cc4c(cc3[C@@H](O[C@@H]3O[C@@H]5CO[C@@H](C)O[C@H]5[C@H](O)[C@H]3O)[C@H]3COC(=O)[C@H]23)OCO4)cc(OC)c1O` [etoposide, reference compound], the neurons killed entry with rat hippocampal neurons was “approximately 85%”.
